The subject of data set [1] is Normal human fibroblasts (IMR90). Description: Compound toxicity towards normal proliferative, senescent or quiescent fibroblasts (XTT cell viability assay). The conditions noted are these: IC50 against normal, proliferating cells divided by IC50 versus senescent (doxorubicin-induced) cells, three days treatment. It counts as cell-based. The protocol:
Normal human fibroblasts (IMR90) and patient-derived β-galactosidase (GLB1) or α-fucosidase (FUCA1) deficient cells were used to determine change in cell viability after exposure to compound. Cells were cultured with DMEM and 10% heat inactivated FBS under a controlled atmosphere of 5% carbon dioxide and 5% oxygen, […] and confirmed by the absence of senescence associated β-galactosidase (SA-β-Gal) staining and the capacity to re-enter the cell cycle. Senescence was induced by treatment with doxorubicin and confirmed by SA-β-Gal positive staining and the lack of DNA replication. Cells were treated with compound for three days. Cell viability was determined by mitochondrial dehydrogenase activity (XTT assay. Cayman Chemical) at ten concentrations of the tested compound. To generate dose-response curves, data was fitted to a four-parameter Hill function and the IC50 was determined at Y=0.5 viability. The senolytic index (S.I.) for each compound was determined by dividing the IC50 against normal, proliferating cells by the IC50 versus senescent cells. Senolytic index data is shown in Table 1 with compounds having S.I.<1 (−), S.I>1 (+), S.I.>5 (++) and S.I>10 (+++).

The test system of data set [2] is senescent lung cells in C57BL/6 mice. Briefly: Senolytic effect of compound (119) on doxorubicin-induced senescent lung cells after in vivo administration. Also on record: species or system mouse. The protocol:
Four groups of C57BL/6 mice (N=9/group) were injected intravenously with doxorubicin (15 mg/kg) to induce senescence in lung tissue. Five days later groups were injected with vehicle or compound (119) (aka RBO-019) (10, 20 or 40 mg/kg i.v.). After an additional 3 days lungs were removed and the left lobes sectioned before staining for SA-β-Gal as previously described (FIGS. 5A and 5B). […] This senolytic effect was also corroborated by using quantitative PCR to detect mRNA levels of Cdkn2a (p16^INK4a). Expression levels were reported relative to Actb as the reference gene.

Data set [3] concerns senescent C57BL/6 mouse hepatocytes. Description: Effect of compound (113) on doxorubicin-induced senescent hepatocytes after in vivo administration. The procedure: Two groups of C57BL/6 mice (N=9/group) were injected intraperitoneally with doxorubicin (20 mg/kg) to induce hepatocellular senescence. 4 and 6 days later groups were injected i.p. with PBS or compound (113) (aka RBO-013) (2×20 mg/kg). A third group of animals served as controls. After an additional 2 days livers were removed and sectioned (30 μm) before staining for SA-β-Gal as previously described (FIGS. 4A and 4B). […] This senolytic effect was also corroborated by using quantitative PCR to detect mRNA levels of Cdkn2a (p16^INK4a) and IL-6 (N.B. Cdkn2a expression was exclusively detected in animals that received doxorubicin). Expression levels were reported relative to Actb as the reference gene.

Data set [4] has as its system Mouse embryonic fibroblast cells (MEFs). Description: Viability of proliferating or senescent mouse embryonic fibroblasts (DAPI/PI staining). It counts as cell-based. The conditions noted are these: 4 days; for toxicity towards senescent MEFs: doxorubicin-induced senescent MEFs, FIG. 1B; for cell viability / toxicity towards proliferating cells: proliferating MEFs, increasing concentrations (as high as 4 mM), FIG. 1A. The procedure:
Mouse embryonic fibroblast cells were incubated with 300 nM doxorubicin for 24 hrs to induce senescence. Cells were washed and after incubation in media for 7 days, senescence was confirmed by staining for SA-β-Gal (Itahana et al., Methods Mol. Biol. 371 (2007) 21-31) and lack of incorporation of 5-ethynyl-2′-deoxyuridine (EdU) (see Yu et al., J. Immunol. Methods 350 (2009) 29-35).
Proliferating or senescent MEFs were treated with increasing concentrations of either FURGal (101) or 5-fluorouridine (FUR) (102) for 4 days. Cells were washed and stained with 4′,6-diamidino-2-phenylindole (DAPI) and propidium iodide (PI) and the fraction of viable cells was assessed from the ratio of PI-positive nuclei over PI-negative nuclei.

The conditions of data set [5]: compared with seco product (78); Tietze et al.; cited from earlier work.
For the next data set, the system named is C57BL/6 mice. Description: Comparative toxicity of FURGal and FUR to C57BL/6 mice. The conditions noted are these: six days after treatment. It counts as in vivo. The protocol:
Equimolar doses of (101)(160 mg/kg) and (102) (100 mg/kg) were administered by single dose intraperitoneal injection to 2 groups of mice (N=3 each). Six days after treatment blood cell counts were determined by standard methods (FIG. 2A), bone marrow cells from femur were counted (FIG. 2B) and spleen weights (FIG. 2C) determined to compare the toxicity of the two drugs.

The subject of data set [6] is senescent C57BL/6 mouse hepatocytes. Briefly: Effect of FURGal on doxorubicin-induced senescent hepatocytes after in vivo administration. Particulars: doxorubicin 25 mg/kg i.p.; FURGal 140 mg/kg 4 and 6 days later; livers after additional 4 days; FIG. 3C. The procedure: Two groups of C57BL/6 mice (N=5/group) were injected intraperitoneally with doxorubicin (25 mg/kg) to induce hepatocellular senescence. 4 and 6 days later groups were injected with PBS or FURGal (140 mg/kg) (101). A third group of 5 animals served as controls. After an additional 4 days livers were removed and sectioned (30 μm) before staining for SA-β-Gal (6 fields/animal were assessed) (FIGS. 3A and 3B).

Data on 13 molecules can be found in patent publication US11026963B2, “Senolytic compositions and uses thereof” (Rubedo Life Sciences, Inc., priority 2018, dated 2021).

SMILES strings stand for the structures.

With `CC(=O)O[C@H]1[C@H](OC(C)=O)[C@H](ONC(=O)/C=C/c2ccc(CNCCc3c(C)[nH]c4ccccc34)cc2)O[C@@H](C)[C@H]1OC(C)=O` [(119), (2S,3R,4R,5S,6S)-2-Methyl-6-(((E)-3-(4-(((2-(2-methyl-1H-indol-3-yl)ethyl)amino)methyl)phenyl)acrylamido)oxy)tetrahydro-2H-pyran-3,4,5-triyl triacetate], the “Senolytic Index (S.I.)” value in data set [1] is on record as “+++ (S.I>10 (+++))”. Further, the “SA-β-Gal staining in lung sections” value in data set [2] (doxorubicin 15 mg/kg i.v., 10, 20 or 40 mg/kg i.v. five days later, lungs after additional 3 days, FIG. 5C) is “dose-dependent reduction”. Also, the “Cdkn2a gene expression in lung” value in data set [2] (quantitative PCR, relative to Actb, 10, 20 or 40 mg/kg i.v., FIG. 5D) is recorded as “dose-dependent reduction”.

`CC(=O)OC[C@H]1O[C@@H](ONC(=O)/C=C/c2ccc(CNCCc3c(C)[nH]c4ccccc34)cc2)[C@H](OC(C)=O)[C@@H](OC(C)=O)[C@H]1OC(C)=O` [(113), (2R,3S,4S,5R,6S)-2-(Acetoxymethyl)-6-(((E)-3-(4-(((2-(2-methyl-1H-indol-3yl)ethyl)amino)methyl)phenyl)acrylamido)oxy)tetrahydro-2H-pyran-3,4,5-triyl Triacetate]: the “Senolytic Index (S.I.)” value in data set [1] was “+++ (S.I>10 (+++))”. In addition, the “senescent hepatocytes (as visualized by SA-β-Gal staining)” value in data set [3] (doxorubicin 20 mg/kg i.p., 2×20 mg/kg i.p. 4 and 6 days later, livers after additional 2 days, FIG. 4C) is “reduction”. Besides, the “Cdkn2a (p16INK4a) gene expression in liver” value in data set [3] (quantitative PCR, relative to Actb, doxorubicin 20 mg/kg, 2×20 mg/kg i.p., FIG. 4D) was “significant reduction”. For the same molecule, the “IL-6 gene expression in liver” value in data set [3] (quantitative PCR, relative to Actb, doxorubicin 20 mg/kg, 2×20 mg/kg i.p., FIG. 4E) is “significant reduction”.

Take `O=c1[nH]c(=O)n([C@@H]2O[C@H](CO)[C@@H](O)[C@H]2O)cc1F` [(102), 5-fluorouridine, reference compound]: in data set [4], the “toxicity towards senescent MEFs” value was “equitoxic” and the “cell viability / toxicity towards proliferating cells” value is “dramatically reduces cell viability”.

As to `C[C@@H](Cl)[C@@H]1CN(C(=O)c2cc3cc(OCCN(C)C)ccc3[nH]2)c2cc(O[C@@H]3O[C@H](CO)[C@H](O)[C@H](O)[C@H]3O)c3ccccc3c21` [Compound (77)], in data set [5], the “fold less cytotoxic than hydrolyzed seco product (78)” value is recorded as “greater than 4000 fold”.

`Cc1[nH]c2ccccc2c1CCNCc1ccc(/C=C/C(=O)NO[C@@H]2O[C@@H](C)[C@@H](O)[C@@H](O)[C@@H]2O)cc1` [(35), (E)-3-(4-(((2-(2-Methyl-1H-indol-3-yl)ethyl)amino)methyl)phenyl)-N-(((2S,3S,4R,5S,6S)-3,4,5-trihydroxy-6-methyltetrahydro-2H-pyran-2-yl)oxy)acrylamide]: in data set [1], the “Senolytic Index (S.I.)” value is “+ (S.I>1 (+))”.

In the case of `CCC(=O)O[C@H]1[C@H](OC(=O)CC)[C@H](ONC(=O)/C=C/c2ccc(CNCCc3c(C)[nH]c4ccccc34)cc2)O[C@@H](C)[C@H]1OC(=O)CC` [(121), (2S,3R,4R,5S,6S)-2-Methyl-6-(((E)-3-(4-(((2-(2-methyl-1H-indol-3-yl)ethyl)amino)methyl)phenyl)acrylamido)oxy)tetrahydro-2H-pyran-3,4,5-triyl Tripropionate], the “Senolytic Index (S.I.)” value in data set [1] is “+++ (S.I>10 (+++))”.

In the case of `CCNC(=O)c1noc(-c2cc(C(C)C)c(O[C@@H]3O[C@H](CO)[C@H](O)[C@H](O)[C@H]3O)cc2O)c1-c1ccc(CN2CCOCC2)cc1` (single isomer, unassigned) [(48)], the “Senolytic Index (S.I.)” value in data set [1] was “+ (S.I>1 (+))”.

As to `COc1ccc(-c2nc(N3CCOCC3)c3sc(CN(C)c4ncc(C(=O)NO[C@@H]5O[C@H](CO)[C@H](O)[C@H](O)[C@H]5O)cn4)cc3n2)cn1` [(124), 2-(((2-(6-Methoxypyridin-3-yl)-4-morpholinothieno[3,2-d]pyrimidin-6-yl)methyl)(methyl)amino)-N-(((2S,3R,4S,5R,6R)-3,4,5-trihydroxy-6-(hydroxymethyl)tetrahydro-2H-pyran-2-yl)oxy)pyrimidine-5-carboxamide], the “Senolytic Index (S.I.)” value in data set [1] was “− (S.I.<1 (−))”.

`CC(C)c1cc(-c2n[nH]c(=O)n2-c2ccc3c(ccn3C)c2)c(O[C@@H]2O[C@H](CO)[C@H](O)[C@H](O)[C@H]2O)cc1O` (single isomer, unassigned) [(128)]: the “Senolytic Index (S.I.)” value in data set [1] was “− (S.I.<1 (−))”.

For the molecule `Cc1[nH]c2ccccc2c1CCNCc1ccc(/C=C/C(=O)NO[C@@H]2O[C@H](CO)[C@H](O)[C@H](O)[C@H]2O)cc1` [(26), (E)-3-(4-(((2-(2-Methyl-1H-indol-3-yl)ethyl)amino)methyl)phenyl)-N-(((2S,3R,4S,5R,6R)-3,4,5-trihydroxy-6-(hydroxymethyl)tetrahydro-2H-pyran-2-yl)oxy)acrylamide], the “Senolytic Index (S.I.)” value in data set [1] is “++ (S.I.>5 (++))”.

On to `CC(=O)O[C@H]1[C@H](OC(C)=O)[C@H](ONC(=O)c2cnc(N3CCC(CNCc4cn(C)c5ccccc45)CC3)nc2)O[C@@H](C)[C@H]1OC(C)=O` [Compound (115), (2S,3R,4R,5S,6S)-2-Methyl-6-((2-(4-((((1-methyl-1H-indol-3-yl)methyl)amino)methyl)piperidin-1-yl)pyrimidine-5-carboxamido)oxy)tetrahydro-2H-pyran-3,4,5-triyl Triacetate], for which, in data set [1], the “Senolytic Index (S.I.)” value is listed as “+++ (S.I>10 (+++))”.

As to `COc1ccc(-c2nc(N3CCOCC3)c3sc(CN(C)c4ncc(C(=O)NO[C@@H]5O[C@@H](C)[C@@H](OC(C)=O)[C@@H](OC(C)=O)[C@@H]5OC(C)=O)cn4)cc3n2)cn1` [(125), (2S,3S,4R,5R,6S)-2-((2-(((2-(6-Methoxypyridin-3-yl)-4-morpholinothieno[3,2-d]pyrimidin-6-yl)methyl)(methyl)amino)pyrimidine-5-carboxamido)oxy)-6-methyltetrahydro-2H-pyran-3,4,5-triyl Triacetate], the “Senolytic Index (S.I.)” value in data set [1] is reported as “++ (S.I.>5 (++))”.

With `O=c1[nH]c(=O)n([C@@H]2O[C@H](CO[C@@H]3O[C@H](CO)[C@H](O)[C@H](O)[C@H]3O)[C@@H](O)[C@H]2O)cc1F` [(101), 5-fluorouridine-5′-O-β-D-galactopyranoside], the “Senolytic Index (S.I.)” value in data set [1] is “+++ (S.I>10 (+++))”. Also, in data set [4], the “toxicity towards senescent MEFs” value is given as “equitoxic” and the “cell viability / toxicity towards proliferating cells” value is on record as “completely non-toxic”. For the same molecule, in the data set with C57BL/6 mice (equimolar single i.p. dose: (101) 160 mg/kg, (102) 100 mg/kg, FIG. 2A, 2B), the “toxicity towards platelets, neutrophils, lymphocytes and bone marrow cells” value is “negligible toxicity”. Moreover, the “effects on spleen weight” value in the data set with C57BL/6 mice (single i.p. dose 160 mg/kg, in comparison to FUR (102) 100 mg/kg, FIG. 2C) is reported as “minimal effects”. Further, in data set [6], the “senescent hepatocytes (SA-β-Gal staining of liver sections)” value was “numerical trend for a reduction”.
